According to PubChem BioAssay AID2305 (GlaxoSmithKline (GSK), 2010):

These compounds were tested on P. falciparum 3D7 growth, pLDH absorbance (assay: blood-stage malaria parasite growth potency – strain 3D7, dose response (AID 2305)).
In the case of `Cc1cccc2[nH]c(-c3ccc(-c4cccc(NC(=O)Nc5cccc(C#N)c5)c4)cc3)nc12`, the IC50 is reported as 540 nM. Compound `CCN(CC)CCCCCNc1c2ccc(Cl)cc2nc2ccc(OC)cc12` has an IC50 of 50 nM. In the case of `CCC[C@@H]([C@@H](CC1CCCCC1)C(=O)N[C@H](C(=O)Nc1nccs1)[C@@H](C)OCc1ccccc1)N(O)C=O`, the IC50 is reported as 80 nM. Compound `CC(C)c1ccc(CN2CCC(CNC(=O)c3cc(-c4cccc(C(F)(F)F)c4)cs3)C2)cc1` (configuration not stated) has an IC50 of 910 nM. For `Cc1[nH]c(C)c(-c2ccc(CCc3ccc(N)cc3)cc2)c(=O)c1Cl`, the IC50 was 100 nM. In the case of `CC(CN1CCN(C)CC1)C(=O)Nc1ccc(-c2cccc(-c3nc4ccccc4[nH]3)c2)cc1` (configuration not stated), the IC50 is reported as 570 nM. Work on `Clc1ccc2c(NCCc3ccccc3)ccnc2c1` yielded an IC50 of 490 nM. In the case of `O=C(Cc1cc(=O)oc2cc(O)ccc12)N1CCC(CN2CCC(c3c[nH]c4ccccc34)CC2)CC1`, the IC50 is reported as 870 nM. With `COc1ccc(Nc2nccc(N3CCC(NC(=O)Nc4cc(C)ccc4C)C3)n2)cc1` (configuration not stated) the IC50 was 900 nM. Compound `NC(N)=NC(=O)Nc1cc(Cl)c(Cl)c(C(F)(F)F)c1` has an IC50 of 610 nM. `O=C1COC2(CN1CC1CCN(Cc3ccc(O)c(Cl)c3)C1)c1ccccc1-c1ccccc12` (configuration not stated) showed an IC50 of 1060 nM. In the case of `CC(C)c1ccc(O)cc1Nc1ccnc2ccc(C(F)(F)F)cc12`, the IC50 is reported as 680 nM. `Cc1cccc2[nH]c(-c3ccc(-c4ccc(CN5CCN(c6cnccn6)CC5)cc4)s3)nc12` showed an IC50 of 750 nM. `Cc1nc2ccc(Nc3nccc(-c4c(-c5cccc(NC(=O)c6c(F)cccc6F)c5)nn5ccccc45)n3)cc2nc1C` was tested, and the IC50 was 1070 nM. In the case of `O=C(/C=C/c1ccc(Cl)c(Cl)c1)NCCCCCCN1CCCN(C(=O)Nc2cc(F)cc(F)c2)CC1`, the IC50 is reported as 710 nM. `Cc1nn(CC(C)C)c2sc(C(=O)Nc3nc(-c4ccccn4)cs3)cc12` was tested, and the IC50 was 960 nM. `CC(Oc1ccc(Cl)cc1)C(=O)N(C)C1CCN(CCCCCNC(=O)/C=C/c2ccc(Cl)c(Cl)c2)CC1` (configuration not stated) gave an IC50 of 960 nM. `Cc1ccc(C2(C)CN(CCCOc3cccc(-c4ccc(C(=O)NC(C)C)cc4)c3)CCO2)cc1` (configuration not stated) gave an IC50 of 960 nM. With `COc1cc(Nc2nccc(N3CCC(NC(=O)C4COc5ccccc5O4)C3)n2)cc(OC)c1OC` (configuration not stated) the IC50 was 920 nM. With `CCOC(=O)c1ccc(N2CCCCC2)c(NC(=O)C(Cl)(Cl)Cl)c1` the IC50 was 850 nM. `CC(=O)Nc1ccc(CN2CCC(N(C)c3cc(NC(=O)c4cccs4)ccn3)CC2)cc1` gave an IC50 of 890 nM. In the case of `O=C(Nc1ccccc1)N(Cc1cccc(-c2cccc(CNCc3ccc4c(c3)OCO4)c2)c1)C1CCN(Cc2ccccc2)CC1`, the IC50 is reported as 280 nM. `COc1ccc(NC(=O)C2c3ccccc3C(=O)N(C3CCCC3)C2c2cccs2)cc1` (configuration not stated) showed an IC50 of 1710 nM. `Nc1nccc2ccc(-c3ccc(OCc4ccccc4)cc3)cc12` was tested, and the IC50 was 220 nM. In the case of `COc1ccc(-c2ccc(NC(=O)c3ccc(C#N)cc3)cc2)cc1CN1CCNCC1`, the IC50 is reported as 510 nM. In the case of `c1cncc(Oc2ccc(Nc3ccnc4cc(-c5cccc(CN6CCCCC6)c5)ccc34)cc2)c1`, the IC50 is reported as 120 nM. `CC(C)[C@H]1CC[C@H](C)C[C@@H]1OC(=O)N[C@@H](Cc1ccc(O)cc1)C(=O)NC1CCN(Cc2ccc(OCCCN(C)C)cc2)C1` (some centres not stated) showed an IC50 of 760 nM. Work on `CNC(=O)c1cc(F)c(F)cc1Nc1nc(Nc2cccc(CS(C)(=O)=O)c2)ncc1Cl` yielded an IC50 of 1020 nM. `O=C(Nc1cccc(-c2ccc(-c3nc4ccc(C(F)(F)F)cc4[nH]3)s2)c1)c1cnc[nH]1` was tested, and the IC50 was 1110 nM. Compound `O=C(/C=C/c1ccc(Cl)c(Cl)c1)NCCCCN1CCCN(C(=O)Nc2ccc(Cl)c(Cl)c2)CC1` has an IC50 of 860 nM. `O=c1cc(-c2ccc3ccccc3c2)[nH]c2ccccc12` was tested, and the IC50 was 1160 nM. Work on `O=S(=O)(Nc1cccc(CCN2CCC(N3CCCCC3)CC2)c1)c1ccc(-c2ccccc2)cc1` yielded an IC50 of 1120 nM. With `CS(=O)(=O)c1ccc(-c2cncc(Cl)n2)cc1` the IC50 was 770 nM. Work on `Cc1cc(Nc2cccc(C(F)(F)F)c2)nc(Nc2cccc(C(F)(F)F)c2)n1` yielded an IC50 of 640 nM. `CCOC(=O)c1ccc(-c2cnoc2-c2cc(CC)c(OC)cc2O)o1` gave an IC50 of 280 nM. Work on `COc1ccc(CNCCc2cccs2)cc1-c1cccc(S(=O)(=O)NCCN2CCCC2)c1` yielded an IC50 of 880 nM. `Cn1cncc1CCN(Cc1ccc(-c2ccc(C(F)(F)F)cc2)cc1)C(=O)Cn1c(CCc2cccc(F)c2F)cc(=O)c2cccnc21` was tested, and the IC50 was 850 nM.
